Data from patent publication US7763567B2, “Agrochemical compositions” (priority 2003, dated 2010).
Structures can show the parent of a compound that is named as a salt. Where two headings read alike, the source gives them in different places.

How the values were obtained:
[1] = assay type: physicochemical; settings: for loading at which compatible with compositions of WO 02/076212: actual amine
Text: It is to be understood that the term physical incompatibility in relation to adjuvants used in bipyridyl compositions indicates either gross separation of one or more components of the composition which may or may not be accompanied by a significant change in formulation rheology or bulk homogeneity. It is not necessarily essential that the composition is fully homogeneous in a strict physical sense provided that the composition is substantially homogeneous in the bulk. Thus a slight separation of a second phase may be acceptable provided that the separated phase remains fully dispersed in the bulk. […] This is obviously undesirable for a number of reasons. The term physical compatibility indicates the reverse of physical incompatibility as defined above.

[2] = system: Ipomoea hederacea (IPOHE); assay type: in vivo
Text: (§1) TEDA was first neutralized with hydrochloric acid to form the TEDA hydrochloride. An aqueous formulation of paraquat dichloride containing 0.5% by weight of TEDA based on total spray volume was applied to test species Ipomoea hederacea (IPOHE) and Sida spinosa (SIDSP) at 10 and 30 g/ha (based on paraquat ion). The spray volume was equivalent to 200 L/ha The biological data (% activity) at 6 days after treatment is expressed in Table 1 as an average response over the combined rates and is compared with an equivalent formulation containing only paraquat chloride.
(§2) The following compositions were compared using the general procedure of Example 1. TEDA was used in the form of its hydrochloride: • 1. An aqueous formulation containing paraquat dichloride and 0.5% by weight of TEDA hydrochloride based on total spray volume; • 2. An aqueous formulation containing paraquat dichloride and 0.5% by weight based on total spray volume of a mixture of TEDA hydrochloride and the surfactant EMPIGEN BB and TEDA at a ratio of TEDA to EMPIGEN BB of 5:2. EMPIGEN BB is lauryl betaine supplied at a concentration of 30%. The proportions given above and below are based on lauryl betaine content. • 3. An aqueous formulation (comparison) containing paraquat dichloride and 0.5% by weight based on total spray volume of EMPIGEN BB • 4. An aqueous formulation containing paraquat dichloride and 0.5% by weight based on total spray volume of a mixture of TEDA hydrochloride and the surfactant AGRIMUL PG2067 and TEDA at a ratio of TEDA to AGRIMUL PG2067 of 5:2. AGRIMUL PG2067 is an alkylpolyglycoside supplied at a concentration of 70%. The proportions given above and below are based on alkylpolyglycoside content. • 5. An aqueous formulation (comparison) containing paraquat chloride and 0.5% by weight based on total spray volume of AGRIMUL PG2067.

[3] = system: Sida spinosa (SIDSP); assay type: in vivo
Text: as §1, §2

[4] = system: eight representative weed species; assay type: in vivo
Description: (§3) The bioperformance enhancement of paraquat in the presence of amines of the present invention was evaluated. An aqueous formulation of paraquat dichloride containing 0.5% by weight of amine (based on the weight of the parent amine and based on total spray volume) was applied using a moving track sprayer to eight representative weed species at 10, 20 and 40 g/ha (based on paraquat ion). The spray volume was equivalent to 200 l/ha.
(§4) Three replicates of each test were undertaken and the biological data (% activity where 0% represents no herbicidal effect and 100% represents complete kill) at 7 days after treatment is expressed in Table 4 as a mean over all species based on an average response over the combined rates. The results are compared with an equivalent formulation containing only paraquat chloride.
as §3, with “presence of some amines of” for “presence of amines of”, “dichloride containing 0.2% by weight” for “dichloride containing 0.5% by weight”
as §4, with “5” for “4”, “equivalent standard” for “equivalent”, “containing” for “containing only”, “chloride and 0.2% of an effective adjuvant blend” for “chloride.”

[5] = Example 2, general procedure of Example 1, adjuvant 0.5% by weight of total spray volume, TEDA:surfactant 5:2
[6] = Example 3, procedure of Example 1, adjuvant 0.5% by weight of total spray volume, TEDA salts with anionic surfactants
[7] = Example 4, 0.5% by weight amine, paraquat 10, 20 and 40 g/ha, 200 l/ha, 7 days after treatment, mean over all species and combined rates, three replicates

Row | Compound | loading at which compatible with compositions of WO 02/076212 [1] | Mean Activity (%) [4, 7] [%] | Mean Activity (%) ([4]; in vivo) | further results
1 | C1CN2CCN1CC2 [TEDA, Triethylenediamine] | ≥ 60 g/L | 61 |  | % Activity IPOHE [2, 5]: 64.4%; % Activity IPOHE [2, 6]: 63.8%; % Activity SIDSP [3, 5]: 35.8%; % Activity SIDSP [3, 6]: 45.9%
2 | NCCN [EDA as HCl salt, ethylenediamine, reference compound] |  |  | 54 | 
3 | NCCNCCNCCN [TETA as HCl salt, triethylenetetramine, reference compound] | less than 30 g/l |  | 60 | 
4 | CCCCCCCCOC(=O)CC(C(=O)OCCCCCCCC)S(=O)(=O)O.[Na] (stereo not shown) [sodium dioctyl sulphosuccinate, reference compound] |  |  |  | level at which physical separation / two phases observed ([1]; about 120 g/l paraquat ion, about 80 g/l diquat ion, alginate, about 120 g/l magnesium sulphate heptahydrate): below 10 g/l
5 | CN(C)CCN(C)C [TMEDA as HCl salt, tetramethylethylenediamine] | ≤ 30 g/L | 59 |  | Mean Activity (%) ([4]; Example 5, 0.2% by weight amine, paraquat 10, 20 and 40 g/ha, 200 l/ha, 7 days after treatment, mean over all species and combined rates, three replicates): 56%
